# Target: T1, KDM5A (Homo sapiens, UniProt P29375)
# T1 construct: Full length KDM5A enzyme was expressed and purified inhouse; made in house
# Test: KDM5 enzyme assay, KDM5A HTRF (Example 463)
# Type: biochemical
# Conditions: not given
# T1 sequence (P29375 whole entry): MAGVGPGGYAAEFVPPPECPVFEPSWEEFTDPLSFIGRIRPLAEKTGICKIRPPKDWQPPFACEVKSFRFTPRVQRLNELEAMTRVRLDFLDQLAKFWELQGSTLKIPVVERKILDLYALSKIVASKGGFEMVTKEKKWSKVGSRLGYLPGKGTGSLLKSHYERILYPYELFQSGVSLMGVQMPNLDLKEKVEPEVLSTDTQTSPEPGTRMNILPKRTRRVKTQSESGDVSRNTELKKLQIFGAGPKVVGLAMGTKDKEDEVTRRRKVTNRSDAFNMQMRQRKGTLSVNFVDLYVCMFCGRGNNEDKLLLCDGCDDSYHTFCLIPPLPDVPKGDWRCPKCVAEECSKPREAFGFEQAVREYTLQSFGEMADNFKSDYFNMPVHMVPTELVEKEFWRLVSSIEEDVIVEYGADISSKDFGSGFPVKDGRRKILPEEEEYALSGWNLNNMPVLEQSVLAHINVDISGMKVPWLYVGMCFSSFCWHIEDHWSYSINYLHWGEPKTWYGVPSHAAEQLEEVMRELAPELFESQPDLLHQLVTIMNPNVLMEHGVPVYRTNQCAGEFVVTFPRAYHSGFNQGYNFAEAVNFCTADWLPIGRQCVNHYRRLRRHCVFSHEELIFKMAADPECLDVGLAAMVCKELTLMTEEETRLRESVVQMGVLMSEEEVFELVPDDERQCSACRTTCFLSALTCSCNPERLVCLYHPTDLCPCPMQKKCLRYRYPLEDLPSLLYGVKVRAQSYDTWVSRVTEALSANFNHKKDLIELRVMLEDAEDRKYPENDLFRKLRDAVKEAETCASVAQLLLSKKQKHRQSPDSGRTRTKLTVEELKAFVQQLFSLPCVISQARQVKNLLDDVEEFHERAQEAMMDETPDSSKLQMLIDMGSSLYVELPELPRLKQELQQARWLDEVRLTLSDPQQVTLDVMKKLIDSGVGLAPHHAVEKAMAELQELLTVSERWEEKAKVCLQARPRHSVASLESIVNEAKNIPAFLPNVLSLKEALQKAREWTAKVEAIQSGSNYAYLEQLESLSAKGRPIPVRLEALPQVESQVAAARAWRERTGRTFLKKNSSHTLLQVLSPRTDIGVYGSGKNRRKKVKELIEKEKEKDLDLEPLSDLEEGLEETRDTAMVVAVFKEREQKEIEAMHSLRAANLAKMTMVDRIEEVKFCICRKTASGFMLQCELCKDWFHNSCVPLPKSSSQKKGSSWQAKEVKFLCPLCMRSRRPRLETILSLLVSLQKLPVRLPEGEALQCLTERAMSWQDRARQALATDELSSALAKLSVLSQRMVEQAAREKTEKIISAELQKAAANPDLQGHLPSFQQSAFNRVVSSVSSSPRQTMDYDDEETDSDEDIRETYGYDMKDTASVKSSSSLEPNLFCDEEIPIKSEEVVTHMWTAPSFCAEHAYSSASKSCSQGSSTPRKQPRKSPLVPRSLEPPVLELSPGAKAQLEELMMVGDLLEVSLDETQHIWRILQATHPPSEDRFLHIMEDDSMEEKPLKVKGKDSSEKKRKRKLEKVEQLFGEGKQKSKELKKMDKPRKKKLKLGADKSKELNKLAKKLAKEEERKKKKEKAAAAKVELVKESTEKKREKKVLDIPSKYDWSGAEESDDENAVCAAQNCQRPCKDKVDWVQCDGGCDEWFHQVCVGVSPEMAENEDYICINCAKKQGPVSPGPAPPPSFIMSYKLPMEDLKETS
row,Compound,IC50
1,"N#Cc1cnn2c(=O)c(Br)c(-c3ccccc3)[nH]c12 [Example 45, 6-Bromo-7-oxo-5-phenyl-4,7-dihydropyrazolo[1,5-a]pyrimidine-3-carbonitrile]",30 nM
2,CC(C)c1c(-c2cccnc2)[nH]c2c(C#N)cnn2c1=O [Example 91],12 nM

# Same assay, conditions: compounds of Examples 1-432; read-out: Example 463 Assay KDM5A HTRF IC50
row,IC50,Compound
1,128 nM,"CC(c1c(-c2ccccc2)[nH]c2c(C#N)cnn2c1=O)C1CC1 (centres unmarked) [Example 39, 6-(1-cyclopropylethyl)-7-oxo-5-phenyl-4H-pyrazolo[1,5-a]pyrimidine-3-carbonitrile]"
2,10 nM,"CCc1c(-c2cccc(-c3ccccc3)c2)[nH]c2c(C#N)cnn2c1=O [Example 40, 5-([1,1′-Biphenyl]-3-yl)-6-ethyl-7-oxo-4,7-dihydropyrazolo[1,5-a]pyrimidine-3-carbonitrile]"
3,19 nM,"CCc1c(-c2cccc(Nc3ccc(F)cc3)c2)[nH]c2c(C#N)cnn2c1=O [Example 41, 6-Ethyl-5-(3-((4-fluorophenyl)amino)phenyl)-7-oxo-4,7-dihydropyrazolo[1,5-a]pyrimidine-3-carbonitrile]"
4,21 nM,"CC(C)c1c(-c2cccc(N3CCCC3=O)c2)[nH]c2c(C#N)cnn2c1=O [Example 42, 6-isopropyl-7-oxo-5-(3-(2-oxopyrrolidin-1-yl)phenyl)-4,7-dihydropyrazolo[1,5-a]pyrimidine-3-carbonitrile]"
5,83 nM,"N#Cc1cnn2c(=O)cc(-c3cc(N)cc(-c4ccccc4)c3)[nH]c12 [Example 43, 5-(3-amino-5-phenyl-phenyl)-7-oxo-4H-pyrazolo[1,5-a]pyrimidine-3-carbonitrile]"
6,368 nM,"CC(=O)Nc1cc(-c2ccccc2)cc(-c2cc(=O)n3ncc(C#N)c3[nH]2)c1 [Example 44, N-[3-(3-Cyano-7-oxo-4H-pyrazolo[1,5-a]pyrimidin-5-yl)-5-phenyl-phenyl]acetamide]"
7,2900 nM,"Cc1[nH]c2c(C#N)cnn2c(=O)c1-c1ccco1 [Example 46, 6-(2-Furyl)-5-methyl-7-oxo-4H-pyrazolo[1,5-a]pyrimidine-3-carbonitrile]"
8,24 nM,"CC(C)c1c(Nc2ccccc2)[nH]c2c(C#N)cnn2c1=O [Example 47, 6-isopropyl-7-oxo-5-(phenylamino)-4,7-dihydropyrazolo[1,5-a]pyrimidine-3-carbonitrile]"
9,84 nM,"CC(C)c1c(N2CCCCC2)[nH]c2c(C#N)cnn2c1=O [Example 48, 6-isopropyl-7-oxo-5-(piperidin-1-yl)-4,7-dihydropyrazolo[1,5-a]pyrimidine-3-carbonitrile]"
10,25 nM,"CC(C)c1c(Oc2ccccc2)[nH]c2c(C#N)cnn2c1=O [Example 49, 6-isopropyl-7-oxo-5-phenoxy-4,7-dihydropyrazolo[1,5-a]pyrimidine-3-carbonitrile]"
11,20 nM,CC(C)c1c(-c2coc3ccccc23)[nH]c2c(C#N)cnn2c1=O [Example 50]
12,8.3 nM,CC(C)c1c(-c2ccn(-c3ccccc3)n2)[nH]c2c(C#N)cnn2c1=O [Example 51]
13,5.8 nM,CC(C)c1c(-c2ccc(C3CC3)o2)[nH]c2c(C#N)cnn2c1=O [Example 52]
14,17 nM,Cc1occc1-c1[nH]c2c(C#N)cnn2c(=O)c1C(C)C [Example 53]
15,6 nM,CC(C)c1c(-c2cnn(-c3ccccc3)c2)[nH]c2c(C#N)cnn2c1=O [Example 54]
16,11 nM,CCn1cc(-c2[nH]c3c(C#N)cnn3c(=O)c2C(C)C)cn1 [Example 55]
17,16 nM,CC(C)c1c(-c2ccc(=O)n(C)c2)[nH]c2c(C#N)cnn2c1=O [Example 56]
18,5.7 nM,CCc1c(-c2ccco2)[nH]c2c(C#N)cnn2c1=O [Example 57]
19,7.3 nM,CC(C)c1c(-c2cc(C3CC3)co2)[nH]c2c(C#N)cnn2c1=O [Example 58]
20,34 nM,CC(C)c1c(-c2ccc(-c3ccccc3)o2)[nH]c2c(C#N)cnn2c1=O [Example 59]
21,19 nM,CC(C)c1c(-c2cnn(C(C)C)c2)[nH]c2c(C#N)cnn2c1=O [Example 60]
22,10 nM,CC(C)c1c(-c2cncnc2)[nH]c2c(C#N)cnn2c1=O [Example 61]
23,12 nM,Cc1cncc(-c2[nH]c3c(C#N)cnn3c(=O)c2C(C)C)c1 [Example 62]
24,15 nM,CC(C)c1c(-c2ccn(C)n2)[nH]c2c(C#N)cnn2c1=O [Example 63]
25,14 nM,CC(C)c1c(-c2ccccc2F)[nH]c2c(C#N)cnn2c1=O [Example 66]

row,IC50,Compound
1,10 nM,CC(C)c1c(-c2ccc(C#N)cc2)[nH]c2c(C#N)cnn2c1=O [Example 67]
2,13 nM,COc1ccc(-c2[nH]c3c(C#N)cnn3c(=O)c2C(C)C)cc1 [Example 68]
3,21 nM,CC(C)c1c(-c2ccc(C(F)(F)F)cc2)[nH]c2c(C#N)cnn2c1=O [Example 69]
4,7.8 nM,CC(C)c1c(-c2ccc(F)cc2)[nH]c2c(C#N)cnn2c1=O [Example 70]
5,4.5 nM,CCc1c(-c2cnn(Cc3ccccc3)c2)[nH]c2c(C#N)cnn2c1=O [Example 71]
6,10 nM,CC(C)c1c(-c2cnn(Cc3ccccc3)c2)[nH]c2c(C#N)cnn2c1=O [Example 72]
7,7.3 nM,CC(C)c1c(-c2cncc(Cl)c2)[nH]c2c(C#N)cnn2c1=O [Example 73]
8,4 nM,CC(C)c1c(-c2cncc(F)c2)[nH]c2c(C#N)cnn2c1=O [Example 74]
9,10 nM,C=C(C)c1[nH]c2c(C#N)cnn2c(=O)c1C(C)C [Example 75]
10,6 nM,C=Cc1[nH]c2c(C#N)cnn2c(=O)c1C(C)C [Example 76]
11,12 nM,CC(C)c1c(-c2ccnn2C)[nH]c2c(C#N)cnn2c1=O [Example 77]
12,7.7 nM,CC(C)c1c(-c2cc(CO)co2)[nH]c2c(C#N)cnn2c1=O [Example 78]
13,13 nM,CC(C)c1c(-c2cccc(C#N)c2)[nH]c2c(C#N)cnn2c1=O [Example 79]
14,6.8 nM,CC(C)c1c(-c2ccn[nH]2)[nH]c2c(C#N)cnn2c1=O [Example 80]
15,6.5 nM,CC(C)c1c(-c2ccco2)[nH]c2c(C#N)cnn2c1=O [Example 81]
16,12 nM,CC(C)c1c(C2=CCOC2)[nH]c2c(C#N)cnn2c1=O [Example 82]
17,12 nM,CC(C)c1c(-c2ccsc2)[nH]c2c(C#N)cnn2c1=O [Example 83]
18,8.3 nM,CC(C)c1c(-c2cccs2)[nH]c2c(C#N)cnn2c1=O [Example 84]
19,12 nM,CC(C)c1c(-c2cnn(C)c2)[nH]c2c(C#N)cnn2c1=O [Example 85]
20,4.5 nM,Cc1ccc(-c2[nH]c3c(C#N)cnn3c(=O)c2C(C)C)o1 [Example 86]
21,7.5 nM,CC(C)c1c(-c2ccc(CO)o2)[nH]c2c(C#N)cnn2c1=O [Example 87]
22,14 nM,CC(C)c1c(-c2cccc(C(F)(F)F)c2)[nH]c2c(C#N)cnn2c1=O [Example 88]
23,10 nM,COc1cccc(-c2[nH]c3c(C#N)cnn3c(=O)c2C(C)C)c1 [Example 89]
24,9 nM,CC(C)c1c(-c2cccc(F)c2)[nH]c2c(C#N)cnn2c1=O [Example 90]
25,5.5 nM,CCc1c(-c2cn[nH]c2)[nH]c2c(C#N)cnn2c1=O [Example 92]

row,IC50,Compound
1,13 nM,CC(C)c1c(-c2cnn(S(C)(=O)=O)c2)[nH]c2c(C#N)cnn2c1=O [Example 93]
2,12 nM,CC(C)c1c(-c2cnn(C3CCCC3)c2)[nH]c2c(C#N)cnn2c1=O [Example 94]
3,11 nM,CC(C)c1c(-c2cnn(Cc3ccsc3)c2)[nH]c2c(C#N)cnn2c1=O [Example 95]
4,34 nM,CC(C)c1c(-c2ccc(Cl)c(C(=O)N3CCOCC3)c2)[nH]c2c(C#N)cnn2c1=O [Example 96]
5,38 nM,CC(C)c1c(-c2ccc(C(=O)NC3CCCC3)c(Cl)c2)[nH]c2c(C#N)cnn2c1=O [Example 97]
6,37 nM,CC(C)c1c(-c2cnn(C(C)(C)CO)c2)[nH]c2c(C#N)cnn2c1=O [Example 98]
7,6 nM,COc1cccc(Cn2cc(-c3[nH]c4c(C#N)cnn4c(=O)c3C(C)C)cn2)c1 [Example 99]
8,8 nM,CC(C)c1c(-c2cnn(Cc3ccncc3)c2)[nH]c2c(C#N)cnn2c1=O [Example 100]
9,8.5 nM,CC(C)c1c(-c2cnn(Cc3ccccc3Cl)c2)[nH]c2c(C#N)cnn2c1=O [Example 101]
10,10 nM,CC(C)c1c(-c2cnn(Cc3cccc(Oc4ccccc4)c3)c2)[nH]c2c(C#N)cnn2c1=O [Example 102]
11,5.5 nM,CC(C)c1c(-c2cnn(Cc3ccc(Oc4ccccc4)cc3)c2)[nH]c2c(C#N)cnn2c1=O [Example 103]
12,21 nM,CC(C)c1c(-c2cnn(C3CCCCC3)c2)[nH]c2c(C#N)cnn2c1=O [Example 104]
13,8 nM,CC(C)c1c(-c2cnn(C(C)c3ccccc3)c2)[nH]c2c(C#N)cnn2c1=O (centres unmarked) [Example 105]
14,18 nM,CC(C)c1c(-c2cnn(C3CCC3)c2)[nH]c2c(C#N)cnn2c1=O [Example 106]
15,19 nM,CCC(C)n1cc(-c2[nH]c3c(C#N)cnn3c(=O)c2C(C)C)cn1 (centres unmarked) [Example 107]
16,28 nM,CC(C)c1c(-c2ccc(F)c(C(=O)N3CCCC3)c2)[nH]c2c(C#N)cnn2c1=O [Example 108]
17,11 nM,CC(C)c1c(-c2ccn(S(=O)(=O)C3CC3)n2)[nH]c2c(C#N)cnn2c1=O [Example 109]
18,7 nM,CC(C)c1c(-c2ccn(C(=O)C3CC3)n2)[nH]c2c(C#N)cnn2c1=O [Example 110]
19,15 nM,CC(C)c1c(-c2cnn(CCC3CC3)c2)[nH]c2c(C#N)cnn2c1=O [Example 111]
20,330 nM,COC(=O)c1c(-c2ccccc2)[nH]c2c(C#N)cnn2c1=O [Example 112]
21,6 nM,CC(C)c1c(-c2cnn(Cc3cccc(-c4ccccc4)c3)c2)[nH]c2c(C#N)cnn2c1=O [Example 113]
22,5.5 nM,CC(C)c1c(-c2cnn(CCc3ccccc3)c2)[nH]c2c(C#N)cnn2c1=O [Example 114]
23,6 nM,COc1ccccc1Cn1cc(-c2[nH]c3c(C#N)cnn3c(=O)c2C(C)C)cn1 [Example 115]
24,8 nM,COc1ccc(Cn2cc(-c3[nH]c4c(C#N)cnn4c(=O)c3C(C)C)cn2)cc1 [Example 116]
25,14 nM,CC(C)c1c(-c2cnn(C(C)(C)C)c2)[nH]c2c(C#N)cnn2c1=O [Example 117]
